biological target: human PDE4B1 (Homo sapiens (Human), UniProt Q07343); test: cAMP HTRF assay to determine the activity of hPDE4B1; assay type: biochemical; settings: inhibition of PDE4B at a test substrate concentration of 3 μM
Experimental: A: Determination of the PDE4B IC50 Values with a cAMP HRTF® Assay to Determine the Activity of hPDE4B1
The inhibiting effect of the compounds on the enzyme activity of human PDE4B1 is measured by the quantification of 5′-AMP, which is formed from 3′,5′-adenosine monophosphate (cAMP). Human recombinant enzyme, expressed in Sf9 cells, and the HTRF (homogeneous time-resolved fluorescence) detection method are used in the assay.
The test compound or water (control) is mixed with the human recombinant PDE4B1 enzyme (4.8 U) in a buffer consisting of 44.4 mM tris-HCl, 5.28 mM MgCl2, 2.64 mM DTT and 0.044% Tween 20 (pH 7.8). After adding the cAMP enzyme substrate (final concentration 40 nM) the mixture is incubated for 30 minutes at room temperature. Then a fluorescence acceptor (Dye2 marked with cAMP), a fluorescence donor (anti-cAMP antibody marked with a europium cryptate) and the non-specific phosphodiesterase inhibitor IBMX (3-isobutyl-1-methylxanthine; final concentration 1 mM) are added. After 60 minutes the fluorescence transfer, which correlates with the amount of remaining cAMP, is measured with a microplate reader (Rubystar, BMG) at λex=337 nm, λem=620 nm and λem=665 nm. The enzyme activity is calculated from the quotient formed from the measured signal at 665 nm and that at 620 nm. The result is expressed as the percentage inhibition of enzyme activity of the control (without PDE4 inhibitor) (literature: N. Saldou et al., Comparison of recombinant human PDE4 isoforms: interaction with substrate and inhibitors, Cell. Signal. Vol. 10, No. 6, 427-440, 1998). The enzyme is omitted for measurement of the basal control.

Chain of human PDE4B1 (Q07343 whole entry): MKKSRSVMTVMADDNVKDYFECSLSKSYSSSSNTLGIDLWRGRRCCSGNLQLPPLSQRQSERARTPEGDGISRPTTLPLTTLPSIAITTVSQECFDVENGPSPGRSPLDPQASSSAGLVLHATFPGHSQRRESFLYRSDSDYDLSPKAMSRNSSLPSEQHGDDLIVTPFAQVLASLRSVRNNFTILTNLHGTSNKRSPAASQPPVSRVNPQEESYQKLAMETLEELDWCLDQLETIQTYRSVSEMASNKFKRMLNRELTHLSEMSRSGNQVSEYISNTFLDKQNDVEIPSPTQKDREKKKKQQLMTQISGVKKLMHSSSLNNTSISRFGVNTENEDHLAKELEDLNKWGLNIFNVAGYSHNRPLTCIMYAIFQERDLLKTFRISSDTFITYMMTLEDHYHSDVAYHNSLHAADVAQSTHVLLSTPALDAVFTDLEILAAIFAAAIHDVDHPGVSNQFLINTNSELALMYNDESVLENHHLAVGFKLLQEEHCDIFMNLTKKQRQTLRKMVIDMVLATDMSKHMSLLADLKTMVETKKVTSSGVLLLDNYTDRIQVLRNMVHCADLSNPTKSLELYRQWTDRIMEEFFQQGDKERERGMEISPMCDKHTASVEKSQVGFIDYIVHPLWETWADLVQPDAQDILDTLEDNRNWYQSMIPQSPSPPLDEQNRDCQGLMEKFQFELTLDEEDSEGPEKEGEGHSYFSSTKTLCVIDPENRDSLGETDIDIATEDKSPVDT

| Structure (SMILES) | inhibition at 3 µM |
| --- | --- |
| CCc1nc(-c2ccc3occc3c2)nc2c1CCN2c1ccc(C(=O)O)cc1 [Compound 84, 4-(2-(Benzofuran-5-yl)-4-ethyl-5H-pyrrolo[2,3-d]pyrimidin-7(6H)-yl)benzoic acid] | 45% |
| CCc1nc(-c2ccc(F)c(OC)c2)nc2c1CCN2c1ccc(CC(=O)O)cc1 [Compound 86, 2-(4-(4-Ethyl-2-(4-fluoro-3-methoxyphenyl)-5H-pyrrolo[2,3-d]pyrimidin-7(6H)-yl)phenyl)acetic acid] | 47% |
| CCc1nc(-c2ccc3c(c2)OCO3)nc2c1ccn2-c1cccc(OCC(=O)N(C)C)c1 [Compound 87, 2-(3-(2-(Benzo[d][1,3]dioxol-5-yl)-4-ethyl-7H-pyrrolo[2,3-d]pyrimidin-7-yl)phenoxy)-N,N-dimethylacetamide] | 52% |
| CCc1nc(-c2ccc3occc3c2)nc2c1CCN2c1ccc(CC(=O)O)cc1 [Compound 89, 2-(4-(2-(Benzofuran-5-yl)-4-ethyl-5H-pyrrolo[2,3-d]pyrimidin-7(6H)-yl)phenyl)acetic acid] | 63% |
| CCc1nc(-c2ccc(OC(F)F)cc2)nc2c1CCN2c1ccc(CC(=O)O)cc1 [Compound 90, 2-(4-(2-(4-(Difluoromethoxy)phenyl)-4-ethyl-5H-pyrrolo[2,3-d]pyrimidin-7(6H)-yl)phenyl)acetic acid] | 58% |
| CCc1nc(-c2ccc(S(C)(=O)=O)cc2)nc2c1ccn2-c1cccc(OCC(=O)N(C)C)c1 [Compound 91, 2-(3-(4-Ethyl-2-(4-(methylsulfonyl)phenyl)-7H-pyrrolo[2,3-d]pyrimidin-7-yl)phenoxy)-N,N-dimethylacetamide] | 52% |
| CCc1nc(-c2ccc3ncsc3c2)nc2c1CCN2c1ccc(CC(=O)O)cc1 [Compound 93, 2-(4-(2-(Benzo[d]thiazol-6-yl)-4-ethyl-5H-pyrrolo[2,3-d]pyrimidin-7(6H)-yl)phenyl)acetic acid] | 57% |
| CCOc1ccc(-c2nc(CC)c3ccn(-c4cccc(OCC(=O)N(C)C)c4)c3n2)cc1 [Compound 95, 2-(3-(2-(4-Ethoxyphenyl)-4-ethyl-7H-pyrrolo[2,3-d]pyrimidin-7-yl)phenoxy)-N,N-dimethylacetamide] | 41% |
| CCOc1ccc(-c2nc(CC)c3c(n2)N(c2ccc(CC(=O)O)cc2)CC3)cc1 [Compound 96, 2-(4-(2-(4-Ethoxyphenyl)-4-ethyl-5H-pyrrolo[2,3-d]pyrimidin-7(6H)-yl)phenyl)acetic acid] | 39% |
| CCOc1cccc(-c2nc(CC)c3c(n2)N(c2ccc(C(=O)O)cc2)CC3)c1 [Compound 98, 4-(2-(3-Ethoxyphenyl)-4-ethyl-5H-pyrrolo[2,3-d]pyrimidin-7(6H)-yl)benzoic acid] | 43% |
| CCc1nc(-c2ccc(F)c(Cl)c2)nc2c1CCN2c1ccc(CC(=O)O)cc1 [Compound 99, 2-(4-(2-(3-Chloro-4-fluorophenyl)-4-ethyl-5H-pyrrolo[2,3-d]pyrimidin-7(6H)-yl)phenyl)acetic acid] | 54% |

Second part, the compound after the results:

| inhibition at 3 µM | Structure (SMILES) |
| --- | --- |
| 43% | CCc1nc(-c2ccc(OC)c(F)c2)nc2c1ccn2-c1cccc(OCC(=O)N(C)C)c1 [Compound 85, 2-(3-(4-Ethyl-2-(3-fluoro-4-methoxyphenyl)-7H-pyrrolo[2,3-d]pyrimidin-7-yl)phenoxy)-N,N-dimethylacetamide] |
| 51% | CCc1nc(-c2ccc3ncsc3c2)nc2c1ccn2-c1cccc(OCC(=O)N(C)C)c1 [Compound 88, 2-(3-(2-(Benzo[d]thiazol-6-yl)-4-ethyl-7H-pyrrolo[2,3-d]pyrimidin-7-yl)phenoxy)-N,N-dimethylacetamide] |
| 67% | CCc1nc(-c2ccc(OC)c(Cl)c2)nc2c1ccn2-c1cccc(OCC(=O)N(C)C)c1 [Compound 92, 2-(3-(2-(3-Chloro-4-methoxyphenyl)-4-ethyl-7H-pyrrolo[2,3-d]pyrimidin-7-yl)phenoxy)-N,N-dimethylacetamide] |
| 54% | CCc1nc(-c2ccc(OC)cc2)nc2c1ccn2-c1cccc(OCC(=O)N(C)C)c1 [Compound 94, 2-(3-(4-Ethyl-2-(4-methoxyphenyl)-7H-pyrrolo[2,3-d]pyrimidin-7-yl)phenoxy)-N,N-dimethylacetamide] |
| 67% | CCc1nc(-c2cncnc2)nc2c1ccn2-c1cccc(OCC(=O)N(C)C)c1 [Compound 97, 2-(3-(4-Ethyl-2-(pyrimidin-5-yl)-7H-pyrrolo[2,3-d]pyrimidin-7-yl)phenoxy)-N,N-dimethylacetamide] |
